# Test results taken from publication PMC8261488, “Contraceptive progestins with androgenic properties stimulate breast epithelial cell proliferation” (EMBO Molecular Medicine, 2021).
# Legend:
# [1] = tested on: HBECs; test: MKI67/Ki67 expression in xenografted HBECs; format: in vivo, human; details: 21 days pellets; for cell proliferation (KI67 and hECAD double+ cells), overall analysis: HBECs from 11 different patients; for cell proliferation (KI67 and hECAD double+ cells): one mammoplasty (M310)
# From the text: (§1) Next, we sought for a readout of in vivo cell proliferation different from radiance. […] Given that MKI67 expression could replace the luciferase measurements as a readout, we used a modified experimental setup for a second round of experiments. We derived HBECs from viably frozen mammoplasty samples (Appendix Table S3) and engrafted them to different mammary glands of NSG females without viral infection. Four months later, the 24 recipient females, each engrafted with 5 different mammoplasties received pellets containing either vehicle, progesterone, or 1 of 6 progestins for 21 days. At sacrifice, xenografted glands were histologically sectioned and cell proliferation was quantified using co‐IF with anti‐MKI67 and anti‐hECAD antibodies. For one of the mammoplasties, we were able to obtain measurements for all experimental conditions (Fig 5I). […] For the remaining mammoplasties, between 3 and 8 different experimental conditions were successfully quantified (Appendix Table S4). […] CPA (P < 0.0001) decreased proliferation, whereas CMA and DSP had no effect (Fig 5K). As AR signaling increases AR protein levels, we performed co‐IF for AR and hECAD as another means to assess AR signaling activity.
# (§2) Tissues were fixed for 2 h at room temperature in 4% paraformaldehyde and paraffin‐embedded. Dewaxed and rehydrated paraffin sections were pretreated in 10 mM Na citrate (pH 6.0) at 95° for 20 min. Blocking was performed with 1% BSA for 60 min. Primary antibodies used were as follows: Ki67 (rabbit α‐Ki67, clone Sp6, Spring Amsbio, dilution 1:200), ER (rabbit α‐ER, clone Sp1, Zytomed RTU), PR (rabbit α‐PR, clone 1E2, Ventana RTU), AR (rabbit α‐AR, clone SP107, Thermo Fisher, diluted 1:200), CK7 (rabbit α‐CK7, clone Sp52, Abcam, diluted 1:500), CK19 (mouse KS19.2 (Z105.6), American Research Products Inc. (diluted 1:50), and mouse α‐ECAD (clone G‐10, sc‐8426, diluted 1:100). For IHC, chromogenic revelation was performed with ChromoMap DAB kit (Roche Diagnostics, Switzerland) and sections were counterstained with Mayer’s hematoxylin. For fluorescence microscopy, nuclei were counterstained with DAPI (Sigma). IHC for ER, PR, and AR was performed on Discovery Ventana ULTRA (44). IHC images were acquired on Leica DM 2000 with Leica DFC450 C camera. IF images were acquired on Zeiss LSM700 confocal microscope. Slides were scanned with Olympus VS120‐L100 slide scanner with 20×/0.75 objective and Pike F505 C Color camera. Images were loaded into QuPath using the BioFormats extension (Bankhead et al, 2017).
# [2] = tested on: AR; test: In vivo growth of LNG-treated HBEC xenografts transduced with shAR or sh scramble; parameters: species or system human; details: within 60 days
# From the text: To further test the requirement for AR in the context of progestin‐driven proliferation, we took a genetic approach and down modulated AR expression in freshly isolated HBECs using a GFP‐luciferase2‐shAR or GFP‐luciferase2‐sh scramble expressing lentivirus. […] Double IF with anti‐GFP and anti‐AR antibodies and analysis by image quantification confirmed the down regulation of AR protein levels in the shAR infected cells identified based on GFP co‐expression (Fig 7E and F).
# [3] = tested on: HBECs; test: In vivo growth of intraductal HBEC xenografts measured by radiance
# From the text: To compare the effects of progesterone and different progestins on HBECs in vivo, we infected single cell suspensions obtained from fresh reduction mammoplasty specimens with GFP‐luciferase2‐expressing lentiviruses. The infected cell mixture was grafted intraductally to up to 5 glands of as many recipients as possible. The engraftment and growth of the xenografted cells were monitored weekly by in vivo imaging. When radiance reached > 10E07 on average per mammary gland, 60‐day‐release pellets were implanted subcutaneously, usually within 3–10 weeks after cell injection. At sacrifice, blood was collected and plasma levels of the administered compounds as well as endogenous steroid hormones were determined by liquid chromatography‐mass spectrometry (LC‐MS) (Laszlo et al, 2019).
# Next, the in vivo growth of HBEC xenografts stimulated with progesterone or different progestins was analyzed. […] In addition, the fold change radiance of treated versus untreated samples at endpoint was calculated (Fig 5A–C).
# (§3) Mice were anesthetized by intraperitoneal injection with 10 mg/kg xylazine and 90 mg/kg ketamine (Graeub) and injected intraductally with 10 μl cell suspension per gland. Bioluminescence imaging was performed as described (Sflomos et al, 2016). After 3–10 weeks, when bioluminescence from individual glands reached 10^7 total flux (p/s/cm2/sr), animals were assigned to different treatment groups and hormone pellets implanted subcutaneously. Enzalutamide (Selleckchem, Catalog No. S1250) dissolved in 15% DMSO in PEG300 was injected intraperitoneally 3 times/week at 30 mg/kg.
# Pellets were prepared by mixing the required amount of part A, MP3745/E81949 and part B, MP3744/E81950 of low consistency silicon elastomer (MED‐4011) and hormone powder to homogeneity. Mix was transferred to a syringe and incubated at 37°C overnight. The silicon‐hormone mass was removed from the syringe and cut to pieces, as described (Duss et al, 2007). The original protocol was adapted for different doses as described below.
# [4] = tested on: KLK3; test: KLK3 mRNA in xenografted HBECs by RT-PCR with human-specific primers; format: in vivo; details: 3 weeks of treatment (Fig 5H)
# From the text: Consistent with AR and PR sharing a common hormone response element (Claessens et al, 1996), KLK3 was induced upon progestin stimulation. […] This is in agreement with previous findings that KLK3 expression is under the control of both androgens and progestins in T47D cells (Zarghami et al, 1997).
# as §1
# Human breast microstructures and mouse organoids were homogenized in Trizol (Invitrogen). Aqueous phase containing RNA was chloroform extracted and processed with miRNeasy extraction kit (Qiagen). cDNA was synthesized using random p(dN)6 primers (Roche) and MMLV reverse transcriptase (Invitrogen). SYBR Green PCR Core Reagent System (Qiagen) was used for semi‐quantitative real time (RT‐PCR) using the following primers.
# [5] = tested on: endogenous hormone levels in mice; test: Endogenous steroid hormone plasma levels in treated host mice by LC-MS; format: in vivo, mouse; details: xenografted NSG females with pellets
# From the text: Next, we assessed whether progesterone and progestins differentially affected endogenous hormone levels in mice. Plasma 17‐β‐estradiol levels were not affected by any of the treatments (Fig 4H). […] Plasma testosterone levels were not altered by any treatment with the exception of DSP, which decreased them (Fig 4H). Thus, prolonged exposures to progestins differentially affect endogenous progesterone plasma levels and DSP decreases testosterone plasma levels in host mice.
# [6] = tested on: AR; parameters: method as in earlier work; details: various assays, ref Fuhrmann et al, 1995, Muhn et al, Bouchard, 2005, Mishell, 2008, Schneider et al, 2009, Africander et al, 2011, Louw‐du Toit et al, 2017; cited from earlier work
# [7] = tested on: Wnt4; test: Wnt4 transcript levels by RT-PCR in mouse mammary organoids stimulated ex vivo; format: cell-based
# [8] = tested on: women; details: cited from earlier work
# [9] = tested on: Rankl; test: Rankl transcript levels by RT-PCR in mouse mammary organoids stimulated ex vivo; format: cell-based
# [10] = tested on: human breast epithelium; details: female, mouse, in vivo, 8 months
# Description: All the engrafted glands were processed for histological analysis and H&E stained.
# as §3
# [11] = tested on: HBECs; test: MKI67/Ki67 expression in xenografted HBECs; format: in vivo, human; details: 3 weeks of treatment, at endpoint
# [12] = tested on: HBECs; test: In vivo growth of HBEC xenografts treated with LNG with or without enzalutamide; parameters: species or system human; details: 3 PDXs, radiance
# Description: Mice were anesthetized by intraperitoneal injection with 10 mg/kg xylazine and 90 mg/kg ketamine (Graeub) and injected intraductally with 10 μl cell suspension per gland. […] After 3–10 weeks, when bioluminescence from individual glands reached 10^7 total flux (p/s/cm2/sr), animals were assigned to different treatment groups and hormone pellets implanted subcutaneously. Enzalutamide (Selleckchem, Catalog No. S1250) dissolved in 15% DMSO in PEG300 was injected intraperitoneally 3 times/week at 30 mg/kg.
# [13] = tested on: AR; test: Percentage of AR+ cells in xenografted HBECs by co-IF for AR and hECAD; format: in vivo, human; details: 21 days pellets, HBECs from 11 different patients
# From the text: as §1, §2
# [14] = NSG, mouse, in vivo
# Description: At sacrifice, blood was collected and plasma levels of the administered compounds as well as endogenous steroid hormones were determined by liquid chromatography‐mass spectrometry (LC‐MS) (Laszlo et al, 2019).
# Plasma steroid concentrations were measured by LC–MS High Resolution (Q‐Executive, Thermo Fisher Scientific) for testosterone, progesterone, and 17β‐estradiol as described in (Cagnet et al, 2018) and for progestins as described in (Laszlo et al, 2019).
# [15] = tested on: human breast tissue microstructures (EpCAM+ cells); test: RNA sequencing of EpCAM+ cells from human breast tissue microstructures stimulated ex vivo; format: cell-based; details: 14–18 h exposure, n = 3
# From the text: Having ascertained with mammary tissue from inbred mice that androgenic and anti‐androgenic progestins have different effects on the expression of important PR target genes, we set out to assess the transcriptional response to PR signaling in the human breast epithelium. In view of our goal to perform in vivo experiments with the natural ligand progesterone, we compared the effects of progesterone to those of its stable analog R5020 which is commonly used for in vitro experiments on breast epithelial cells. For this, we used an ex vivo approach with human breast tissue similar to the mouse organoid technique used above that maintains hormone responsiveness (Tanos et al, 2013; Sflomos et al, 2015). In brief, 3 fresh mammoplasty tissue from women with follicular phase progesterone levels were cut into 1 mm^3 pieces and aliquoted for digestion with collagenase and concomitant exposure to either vehicle, R5020, or progesterone for 14–18 h. Tissue microstructures that contain epithelial cells, immune cells, and fibroblasts in varying proportions were recovered. To reduce interpatient variation as far as it relates to different ratios of various cell types, at the end of the treatment, the tissue microstructures were dissociated to single cells and enriched for epithelial cells by FACS sorting with antibodies against the epithelial cell surface marker EpCAM (Fig 2A). The EpCAM^+ cells were processed for RNA sequencing. […] Progesterone affected expression levels of 65 genes, whereas R5020 affected 112 genes, including RANKL (adj.P < 0.05) (Appendix Fig S2A). More than 90% of the progesterone‐induced gene expression changes were induced by R5020 (Fig 2C). […] R5020 induced higher‐fold changes as indicated by the estimated slope of the curve being > 1 (P < 0.0001). […]
# All experiments conformed to the principles set out in the WMA Declaration of Helsinki and the Department of Health and Human Services Belmont Report. […] Human tissue samples were mechanically and enzymatically dissociated, single cells were prepared, counted, and spin infected using Lenti‐ONE CMV‐GFP(2A)Luc2 WPRE VSV, V621004001, or pR980 Luc2GFP (GEGTECH) at a multiplicity of infection of 1 at 2.500 rpm for 3 h at room temperature in 500 μl of serum‐free medium. […]
# RNAseq libraries were prepared using Truseq Stranded RNA producing single‐end reads of 100 bp and sequenced on Illumina Hiseq 2500 instrument. […]
# Sequencing reads were quality controlled using FastQC (v0.11.8) (Wingett & Andrews, 2018). Mouse raw reads were aligned to the mouse genome (mm9) and human raw reads to the human genome (hg19) using TopHat (v2.0.11) (Kim et al, 2013). […]
# [16] = 60 days of treatment, subcutaneous pellets
# [17] = BalbC females, 6 h of stimulation
# [18] = BalbC-derived organoids, 24 h of stimulation
smiles,measurement,setting,value
"C#C[C@]1(O)CC[C@H]2[C@@H]3CCC4=CC(=O)CC[C@@H]4[C@H]3CC[C@@]21CC [LNG, levonorgestrel]","cell proliferation (KI67 and hECAD double+ cells), overall analysis",[1],increased
same,cell proliferation (KI67 and hECAD double+ cells),[1],significantly increased
same,reduction of LNG-induced radiance by down regulation of AR expression (shAR),[2],22%
same,cell proliferation by radiance measurements,"[3]; 3 weeks of treatment, mammoplasty M354",stimulated cell proliferation
same,growth (course of radiance) of engrafted HBECs versus control,[3]; [16],increased growth
same,KLK3 transcript expression,[4],increased
same,endogenous progesterone plasma levels (estrous cycle-related variation),[5],did not affect
same,androgenic / anti-androgenic activity,[6],androgenic activity
same,Wnt4 transcript levels over vehicle-treated control,[7]; [17],4.8 fold
same,Wnt4 transcript induction,[7]; [18],36.3 fold
same,Wnt4 transcript induction,"[7]; C57Bl/6 mice, 6 h, 20 nM",4.3 fold
same,breast cancer risk,"[8]; women taking androgenic progestins, ref Rossouw et al, 2002",elevated breast cancer risk
same,RR of breast cancer,"[8]; women, ref Hunter et al, 2010",3.05
same,lobular breast cancer risk compared to the general population,"[8]; women, ref Hunter et al, 2010",1.45
same,RR for ductal breast cancer,"[8]; women, ref Soini et al, 2016",1.20
same,Rankl transcript levels over vehicle-treated control,[9]; [17],27.7 fold
same,Rankl transcript induction,[9]; [18],253.9 fold
same,Rankl transcript induction,"[9]; C57Bl/6 mice, 6 h, 20 nM",21.6 fold
same,morphologic changes in xenografts (H&E),[10],3 or 4 grafts showed diffuse and in some cases marked acinar proliferation
same,MKI67 expression at mRNA level,[11],increased
same,MKI67 expression at protein level,[11],increased
same,proliferation rates of PDXs upon LNG exposure,[12],increased the proliferation rates in 2 of 3 PDXs
CC(=O)[C@H]1CC[C@H]2[C@@H]3CCC4=CC(=O)CC[C@]4(C)[C@H]3CC[C@]12C [progesterone],"cell proliferation (KI67 and hECAD double+ cells), overall analysis",[1],increased
same,cell proliferation (KI67 and hECAD double+ cells),[1],significantly increased
same,percentage of AR+ cells (AR index),[13],decreased
same,plasma progesterone relative to average levels in control mice,[14],4.9 times
same,growth (course of radiance) of engrafted HBECs versus control,[3]; [16],increased
same,relative radiance at endpoint over control (FC),[3]; [16],1.3 fold
same,RANKL expression (variant stabilized gene expression values),[15],increased expression
same,WNT4 expression (variant stabilized gene expression values),[15],increased expression
same,association with breast cancer risk,[8],not associated with breast cancer risk
